Laboratory results: PubChem BioAssay (NCI)
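Tested at 5 concentrations; 48 h exposure; 96-well plates; endpoints linearly interpolated, else capped at highest concentration. TGI: concentration producing complete growth inhibition.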

Assays:
Assay in all cases: inhibition of tumour cell growth, NCI panel, 48 h
[1] = system: HS 578T breast
[2] = system: DU-145 prostate
[3] = system: MDA-N
[4] = system: ACHN renal
[5] = system: HT29 colon
[6] = system: NCI-H23 lung
[7] = system: IGROV1 ovarian
[8] = system: MDA-MB-231 breast
[9] = system: SF-295 CNS
[10] = system: MOLT-4 leukemia
[11] = system: UACC-257 melanoma
[12] = system: UACC-62 melanoma

For `O=[N+]([O-])C(C(Cl)=C(Cl)Cl)=C(N1CCCCC1)N1CCCCC1`, the TGI [1] was 70.8 µM, the TGI [2] was over 100 µM and the TGI [3] was over 100 µM. The TGI [4] was over 100 µM, the TGI [5] was over 100 µM and the TGI [6] was over 100 µM. It also gave a TGI [7] of over 100 µM, a TGI [8] of over 100 µM and a TGI [9] of over 100 µM. The TGI [10] was over 100 µM, the TGI [11] was over 100 µM and the TGI [12] was over 100 µM.

Work on `CC(=O)N1C(c2[nH]c3ccccc3c2Cc2ccccc2)CCN1c1ccccc1` (configuration not stated) yielded a TGI [1] of over 10 µM, a TGI [2] of over 10 µM and a TGI [3] of over 10 µM. The TGI [4] was over 10 µM, the TGI [5] was over 10 µM and the TGI [6] was over 10 µM. The TGI [7] was over 10 µM, the TGI [8] was over 10 µM and the TGI [9] was over 10 µM. It also gave a TGI [10] of over 10 µM and a TGI [11] of over 10 µM.

Work on `O=C1CSC(c2ccccc2)N1c1ccc(-c2ccc(-n3c(-c4ccccc4)nc4ccccc4c3=O)cc2)cc1` (configuration not stated) yielded a TGI [1] of over 100 µM, a TGI [2] of over 100 µM and a TGI [3] of over 100 µM. For the same compound, the TGI [4] was over 100 µM, the TGI [5] was over 100 µM and the TGI [6] was over 100 µM. For the same compound, the TGI [7] was over 100 µM, the TGI [8] was over 100 µM and the TGI [9] was over 100 µM. It also gave a TGI [10] of over 100 µM, a TGI [11] of over 100 µM and a TGI [12] of over 100 µM.

With `CCOC(=O)/C=C(/C(=O)OCC)n1ccc(=O)n(Cc2cn(CCCCOC(C)=O)nn2)c1=O` the TGI [1] was over 100 µM, the TGI [2] was over 100 µM and the TGI [3] was over 100 µM. The TGI [4] was over 100 µM, the TGI [5] was over 100 µM and the TGI [6] was over 100 µM. The TGI [7] was over 100 µM, the TGI [8] was over 100 µM and the TGI [9] was over 100 µM. The TGI [10] was over 100 µM, the TGI [11] was over 100 µM and the TGI [12] was over 100 µM.

For `CC(C)(C)OC(=O)N(O)CCCn1cnc2c(NC3CC3)ncnc21`, the TGI [1] was over 100 µM, the TGI [2] was over 100 µM and the TGI [3] was over 100 µM. It also gave a TGI [4] of over 100 µM, a TGI [5] of over 100 µM and a TGI [6] of over 100 µM. For the same compound, the TGI [7] was over 100 µM, the TGI [8] was over 100 µM and the TGI [9] was over 100 µM. The TGI [10] was over 100 µM, the TGI [11] was over 100 µM and the TGI [12] was over 100 µM.

`CC/C(Cl)=N\OC(=O)Nc1ccc(F)c(Cl)c1` was tested, and the TGI [1] was over 100 µM, the TGI [2] was 34.2 µM and the TGI [3] was 33.4 µM. The TGI [4] was 26.7 µM, the TGI [5] was 55.2 µM and the TGI [6] was 45.7 µM. For the same compound, the TGI [7] was 34.7 µM, the TGI [8] was 41.5 µM and the TGI [9] was 33.1 µM. The TGI [10] was 2.11 µM, the TGI [11] was 31.9 µM and the TGI [12] was 46.3 µM.

Compound `CN1N=C(c2ccncc2)OC1c1cccc(F)c1` (configuration not stated) has a TGI [1] of over 100 µM, a TGI [2] of over 100 µM and a TGI [3] of over 100 µM. For the same compound, the TGI [4] was over 100 µM, the TGI [5] was over 100 µM and the TGI [6] was over 100 µM. The TGI [7] was over 100 µM, the TGI [8] was over 100 µM and the TGI [9] was over 100 µM. For the same compound, the TGI [10] was over 100 µM, the TGI [11] was over 100 µM and the TGI [12] was over 100 µM.

For `COc1ccc(C[C@H]2COC(=O)[C@@H]2Cc2ccc(Br)cc2)cc1OC`, the TGI [1] was over 90.9 µM, the TGI [2] was over 84.3 µM and the TGI [3] was over 100 µM. It also gave a TGI [4] of over 100 µM, a TGI [5] of over 100 µM and a TGI [6] of over 100 µM. For the same compound, the TGI [7] was over 92.4 µM, the TGI [8] was 77.2 µM and the TGI [9] was over 74.3 µM. For the same compound, the TGI [10] was 61.8 µM, the TGI [11] was 74.6 µM and the TGI [12] was 96.8 µM.

Compound `Cc1cc(-c2nc3cc(F)ccc3s2)ccc1N` has a TGI [1] of over 82 µM, a TGI [2] of over 92.1 µM and a TGI [3] of over 100 µM. For the same compound, the TGI [4] was over 87.3 µM, the TGI [5] was over 100 µM and the TGI [6] was over 84.2 µM. The TGI [7] was over 100 µM, the TGI [8] was over 73.6 µM and the TGI [9] was over 100 µM. It also gave a TGI [10] of over 100 µM, a TGI [11] of over 69.9 µM and a TGI [12] of over 100 µM.

`CN(C)c1n2c3ccc([N+](=O)[O-])cc3n3c(N(C)C)[n+]4ccccc4c3c2c2cccc[n+]12` showed a TGI [1] of over 100 µM, a TGI [2] of over 100 µM and a TGI [3] of over 100 µM. For the same compound, the TGI [4] was over 100 µM, the TGI [5] was over 100 µM and the TGI [6] was over 100 µM. The TGI [7] was over 100 µM, the TGI [8] was over 100 µM and the TGI [9] was over 100 µM. It also gave a TGI [10] of over 100 µM, a TGI [11] of over 100 µM and a TGI [12] of over 100 µM.

Work on `COc1ccc(/C(C)=C2\CCCN(Cc3ccccc3)C2)cc1` yielded a TGI [1] of 29.2 µM, a TGI [2] of over 100 µM and a TGI [3] of 47.7 µM. For the same compound, the TGI [4] was 98.4 µM, the TGI [5] was 39.5 µM and the TGI [6] was 79.6 µM. For the same compound, the TGI [7] was 94.3 µM, the TGI [8] was 57.9 µM and the TGI [9] was 35.1 µM. It also gave a TGI [10] of 59.8 µM, a TGI [11] of 86.4 µM and a TGI [12] of 57.9 µM.

In the case of `CC1(C)CC(=O)c2c(-c3ccc(Cl)cc3)c(C#N)c(=S)n(C3OC(CO)C(O)C(O)C3O)c2C1` (configuration not stated), the TGI [1] is reported as over 100 µM, the TGI [2] is reported as over 100 µM and the TGI [3] is reported as 58.3 µM. It also gave a TGI [4] of over 100 µM, a TGI [5] of over 100 µM and a TGI [6] of over 100 µM. It also gave a TGI [7] of over 100 µM, a TGI [8] of over 100 µM and a TGI [9] of over 100 µM. For the same compound, the TGI [10] was over 100 µM, the TGI [11] was 98.2 µM and the TGI [12] was 41.6 µM.

For `CCOC(=O)c1ccc(N=C2Sc3nc4ccccc4n3C2=Nc2ccc(C(=O)OCC)cc2)cc1`, the TGI [1] was 75.5 µM, the TGI [2] was over 100 µM and the TGI [3] was 65 µM. The TGI [4] was 57.2 µM, the TGI [5] was over 100 µM and the TGI [6] was 83.8 µM. For the same compound, the TGI [7] was 60.4 µM, the TGI [8] was 52.5 µM and the TGI [9] was 37.3 µM. The TGI [10] was over 100 µM, the TGI [11] was over 100 µM and the TGI [12] was 54.4 µM.

`OC1C2CCCCN2C[C@@H](O)[C@H]1O` (some centres not stated) gave a TGI [1] of over 100 µM, a TGI [2] of over 100 µM and a TGI [3] of over 100 µM. For the same compound, the TGI [4] was over 100 µM, the TGI [5] was over 100 µM and the TGI [6] was over 100 µM. For the same compound, the TGI [7] was over 100 µM, the TGI [8] was over 100 µM and the TGI [9] was over 100 µM. It also gave a TGI [10] of over 100 µM, a TGI [11] of over 100 µM and a TGI [12] of over 100 µM.

In the case of `Cc1cc(NS(=O)(=O)c2ccc(NO)cc2)no1`, the TGI [1] is reported as over 100 µM, the TGI [2] is reported as over 100 µM and the TGI [3] is reported as 44.4 µM. For the same compound, the TGI [4] was over 100 µM, the TGI [5] was over 100 µM and the TGI [7] was over 100 µM. For the same compound, the TGI [8] was over 100 µM, the TGI [10] was over 100 µM and the TGI [11] was over 100 µM. The TGI [12] was over 100 µM.

`COc1cccc(CCn2c(N)c(-c3cc(Cl)cc(Cl)c3)c3ccc([N+](=O)[O-])cc3c2=O)c1` gave a TGI [1] of over 38 µM, a TGI [2] of over 25.3 µM and a TGI [3] of over 100 µM. The TGI [4] was 22.5 µM, the TGI [5] was over 100 µM and the TGI [6] was 5.99 µM. The TGI [7] was 22.7 µM, the TGI [8] was 61.1 µM and the TGI [9] was over 100 µM. For the same compound, the TGI [10] was over 100 µM, the TGI [11] was 24.4 µM and the TGI [12] was over 100 µM.

With `COC1(OC)CCN(Cc2ccccc2)C1=O` the TGI [1] was over 100 µM, the TGI [2] was 29.2 µM and the TGI [3] was 22.6 µM. It also gave a TGI [4] of 19.7 µM, a TGI [5] of 21.4 µM and a TGI [6] of 43.8 µM. It also gave a TGI [7] of 26.8 µM, a TGI [8] of 38.8 µM and a TGI [9] of 53.9 µM. The TGI [10] was over 100 µM, the TGI [11] was 28.6 µM and the TGI [12] was 26.1 µM.

Work on `COc1cc(-c2nc(N)c(C#N)c3c2CCS(=O)(=O)c2ccc(C)cc2-3)cc(OC)c1OC` yielded a TGI [1] of over 100 µM, a TGI [2] of over 100 µM and a TGI [3] of over 100 µM. It also gave a TGI [4] of over 100 µM, a TGI [5] of over 100 µM and a TGI [6] of over 100 µM. For the same compound, the TGI [7] was over 100 µM, the TGI [8] was 56.3 µM and the TGI [11] was over 100 µM. The TGI [12] was over 100 µM.

Compound `CC1(C)N=C(C(N)=O)c2ncn(Cc3ccccc3)c2N1` has a TGI [1] of over 100 µM, a TGI [2] of over 100 µM and a TGI [3] of over 100 µM. It also gave a TGI [4] of over 100 µM, a TGI [5] of over 100 µM and a TGI [6] of over 100 µM. The TGI [7] was over 100 µM, the TGI [8] was over 100 µM and the TGI [9] was over 100 µM. The TGI [11] was over 100 µM and the TGI [12] was over 100 µM.
